{"source": "ChEMBL document CHEMBL1201862", "about": "“PubChem BioAssay data set” (2004)", "experiment_in_all_cases": "NCI anticancer screen, dose series, 48 h", "key": {"OVCAR-3": {"system": "OVCAR-3"}, "CAKI-1": {"system": "CAKI-1"}, "RXF 631": {"system": "RXF 631"}, "OVCAR-4": {"system": "OVCAR-4"}, "NCI-H226": {"system": "NCI-H226"}, "Malme-3M": {"system": "Malme-3M"}, "SNB-78": {"system": "SNB-78"}, "SNB-75": {"system": "SNB-75"}, "COLO 205": {"system": "COLO 205"}, "IGROV-1": {"system": "IGROV-1"}, "SR": {"system": "SR"}, "SK-MEL-28": {"system": "SK-MEL-28"}, "SF-539": {"system": "SF-539"}, "LXFL 529": {"system": "LXFL 529"}, "SN12C": {"system": "SN12C"}, "HOP-92": {"system": "HOP-92"}, "K562": {"system": "K562"}, "HCC 2998": {"system": "HCC 2998"}, "OVCAR-8": {"system": "OVCAR-8"}, "HL-60": {"system": "HL-60"}, "RXF 393": {"system": "RXF 393"}, "UACC-257": {"system": "UACC-257"}, "HT-29": {"system": "HT-29"}, "SNB-19": {"system": "SNB-19"}, "EKVX": {"system": "EKVX"}, "HCT-116": {"system": "HCT-116"}, "786-0": {"system": "786-0"}, "SF-295": {"system": "SF-295"}, "SK-MEL-5": {"system": "SK-MEL-5"}, "DLD-1": {"system": "DLD-1"}, "M14": {"system": "M14"}, "HOP-62": {"system": "HOP-62"}, "KM-20L2": {"system": "KM-20L2"}, "SW-620": {"system": "SW-620"}, "TK-10": {"system": "TK-10"}, "SK-OV-3": {"system": "SK-OV-3"}, "NCI-H460": {"system": "NCI-H460"}, "OVCAR-5": {"system": "OVCAR-5"}, "KM12": {"system": "KM12"}, "DMS-114": {"system": "DMS-114"}, "UO-31": {"system": "UO-31"}, "MOLT-4": {"system": "MOLT-4"}, "ACHN": {"system": "ACHN"}, "HCT-15": {"system": "HCT-15"}, "U-251": {"system": "U-251"}, "RPMI-8226": {"system": "RPMI-8226"}, "HOP-18": {"system": "HOP-18"}, "M19-MEL": {"system": "M19-MEL"}, "A549": {"system": "A549"}, "UACC-62": {"system": "UACC-62"}, "CCRF-CEM": {"system": "CCRF-CEM"}, "LOX IMVI": {"system": "LOX IMVI"}, "NCI-H522": {"system": "NCI-H522"}, "NCI-H23": {"system": "NCI-H23"}, "A498": {"system": "A498"}, "SF-268": {"system": "SF-268"}, "XF498": {"system": "XF498"}}, "note": "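Briefly, cells in 96-well plates were exposed to five compound concentrations for 48 h, and endpoints were estimated by linear interpolation. Here, GI50 denotes the concentration required for 50% inhibition of growth.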 Active and inactive are the calls of the source. Rule as the data show it: active = GI50 up to about 1.1 µM and inactive = higher.", "data": [{"smiles": "Cc1cccc(C(C)(C)C)c1NC(=O)C(=O)C(C(=O)/C=C\\c1ccccc1)C1OC(=O)c2ccccc21", "note": "(configuration not stated)", "values": [{"measurement": "GI50", "setting": "OVCAR-3", "result": "> 100 µM (inactive)"}, {"measurement": "GI50", "setting": "CAKI-1", "result": "> 100 µM (inactive)"}, {"measurement": "GI50", "setting": "RXF 631", "result": "> 100 µM (inactive)"}, {"measurement": "GI50", "setting": "OVCAR-4", "result": "> 100 µM (inactive)"}, {"measurement": "GI50", "setting": "NCI-H226", "result": "> 100 µM (inactive)"}, {"measurement": "GI50", "setting": "Malme-3M", "result": "> 100 µM (inactive)"}, {"measurement": "GI50", "setting": "SNB-78", "result": "> 100 µM (inactive)"}, {"measurement": "GI50", "setting": "SNB-75", "result": "> 100 µM (inactive)"}, {"measurement": "GI50", "setting": "COLO 205", "result": "> 100 µM (inactive)"}, {"measurement": "GI50", "setting": "IGROV-1", "result": "> 100 µM (inactive)"}, {"measurement": "GI50", "setting": "SR", "result": "> 100 µM (inactive)"}, {"measurement": "GI50", "setting": "SK-MEL-28", "result": "> 100 µM (inactive)"}, {"measurement": "GI50", "setting": "SF-539", "result": "> 100 µM (inactive)"}, {"measurement": "GI50", "setting": "LXFL 529", "result": "> 100 µM (inactive)"}, {"measurement": "GI50", "setting": "SN12C", "result": "> 100 µM (inactive)"}, {"measurement": "GI50", "setting": "HOP-92", "result": "> 100 µM (inactive)"}, {"measurement": "GI50", "setting": "K562", "result": "> 100 µM (inactive)"}, {"measurement": "GI50", "setting": "HCC 2998", "result": "> 100 µM (inactive)"}, {"measurement": "GI50", "setting": "OVCAR-8", "result": "> 100 µM (inactive)"}, {"measurement": "GI50", "setting": "HL-60", "result": "> 100 µM (inactive)"}, {"measurement": "GI50", "setting": "RXF 393", "result": "> 100 µM (inactive)"}, {"measurement": "GI50", "setting": "UACC-257", "result": "> 100 µM (inactive)"}, {"measurement": "GI50", "setting": "HT-29", "result": "> 100 µM (inactive)"}, {"measurement": "GI50", "setting": "SNB-19", "result": "> 100 µM (inactive)"}, {"measurement": "GI50", "setting": "EKVX", "result": "> 100 µM (inactive)"}, {"measurement": "GI50", "setting": "HCT-116", "result": "> 100 µM (inactive)"}, {"measurement": "GI50", "setting": "786-0", "result": "> 100 µM (inactive)"}, {"measurement": "GI50", "setting": "SF-295", "result": "> 100 µM (inactive)"}, {"measurement": "GI50", "setting": "SK-MEL-5", "result": "> 100 µM (inactive)"}, {"measurement": "GI50", "setting": "DLD-1", "result": "> 100 µM (inactive)"}, {"measurement": "GI50", "setting": "M14", "result": "> 100 µM (inactive)"}, {"measurement": "GI50", "setting": "HOP-62", "result": "> 100 µM (inactive)"}, {"measurement": "GI50", "setting": "KM-20L2", "result": "> 100 µM (inactive)"}, {"measurement": "GI50", "setting": "SW-620", "result": "> 100 µM (inactive)"}, {"measurement": "GI50", "setting": "TK-10", "result": "> 100 µM (inactive)"}, {"measurement": "GI50", "setting": "SK-OV-3", "result": "> 100 µM (inactive)"}, {"measurement": "GI50", "setting": "NCI-H460", "result": "> 100 µM (inactive)"}, {"measurement": "GI50", "setting": "OVCAR-5", "result": "> 100 µM (inactive)"}, {"measurement": "GI50", "setting": "KM12", "result": "> 100 µM (inactive)"}, {"measurement": "GI50", "setting": "DMS-114", "result": "> 100 µM (inactive)"}, {"measurement": "GI50", "setting": "UO-31", "result": "> 100 µM (inactive)"}, {"measurement": "GI50", "setting": "MOLT-4", "result": "> 100 µM (inactive)"}, {"measurement": "GI50", "setting": "ACHN", "result": "> 100 µM (inactive)"}, {"measurement": "GI50", "setting": "HCT-15", "result": "> 100", "unit": "µM"}, {"measurement": "GI50", "setting": "U-251", "result": "> 100 µM (inactive)"}, {"measurement": "GI50", "setting": "RPMI-8226", "result": "> 100 µM (inactive)"}, {"measurement": "GI50", "setting": "HOP-18", "result": "> 100 µM (inactive)"}, {"measurement": "GI50", "setting": "M19-MEL", "result": "> 100 µM (inactive)"}, {"measurement": "GI50", "setting": "A549", "result": "> 100 µM (inactive)"}, {"measurement": "GI50", "setting": "UACC-62", "result": "> 100 µM (inactive)"}, {"measurement": "GI50", "setting": "CCRF-CEM", "result": "> 100 µM (inactive)"}, {"measurement": "GI50", "setting": "LOX IMVI", "result": "> 100 µM (inactive)"}, {"measurement": "GI50", "setting": "NCI-H522", "result": "> 100 µM (inactive)"}, {"measurement": "GI50", "setting": "NCI-H23", "result": "> 100 µM (inactive)"}, {"measurement": "GI50", "setting": "A498", "result": "> 100 µM (inactive)"}, {"measurement": "GI50", "setting": "SF-268", "result": "> 100 µM (inactive)"}, {"measurement": "GI50", "setting": "XF498", "result": "> 100 µM (inactive)"}]}]}
